# No end group written: not given here.
# Legend:
# Assay in all cases: biochemical
# Format in all cases: binding
# A*3301 = A*3301 (Homo sapiens, UniProt P04439, A270S/D185E/E176V/E277Q/E87N/F33T/G231S/H175R/I121M/I218V/I322F/K168Q/K210R/L300P/L318F/M331R/P217A/Q86R/Q94H/R138Q/T323A/T345S/T97I/V358M/Y195H)
# A*6801 = A*6801 (Homo sapiens, UniProt P04439, A269V/D185E/E176V/E277Q/E87N/F33Y/G231S/I121M/I166T/I218V/L180W/L300P/L318F/N151K/P208A/P217A/Q86R/R169H/T345S)
# A31 (A*3101) = A31 (A*3101) (Homo sapiens, UniProt P04439, A270S/D185E/E176V/E277Q/F33T/G231S/G80R/H175R/I121M/I218V/I322F/K168Q/L300P/L318F/M331R/P217A/Q94H/R138Q/T323A/T345S/T97I/V358M)
# HLA-A3.2 (A*0301) = HLA-A3.2 (A*0301) (Homo sapiens, UniProt P04439)
# HLA-A11 (A*1101) = HLA-A11 (A*1101) (Homo sapiens, UniProt P04439, A114D/D185E/E176A/F33Y/L180Q/S129P/T187R)
Sequence,IC50 (A*3301) [µM],IC50 (A*6801) [µM],IC50 (A31 (A*3101)) [µM],IC50 (HLA-A3.2 (A*0301)) [µM],IC50 (HLA-A11 (A*1101)) [µM]
RILSTCLGR [Peptide 9017.0073],1.45,1.45,0.0085,0.058,–
LTKMFCQLAK [Peptide 1556.51],12.6,0.173,2.38,0.94,–
SQRLNVCQDK [Peptide 88.0205],> 20,> 20,13.4,1.87,–
SLKCLRYRLK [Peptide 88.0217],18.8,12.6,2.69,0.074,–
RLCDHIDYWK [Peptide 1589.11],> 20,17.1,1.63,0.457,–
MLIQPPKLR [Peptide 88.0340],0.146,0.025,0.699,16.2,–
TVTVSAELPK [Peptide 1556.16],> 20,–,> 20,3.43,–
GVRRATTSTK [Peptide 88.0210],> 20,18.3,3.63,0.0061,–
MVVLLLVRYK [Peptide 1587.04],4.48,0.72,–,2.63,–
YLALTALIK [Peptide 9017.0097],> 20,5.9,> 20,0.235,–
VQVYFDGNK [Peptide 88.0399],> 20,–,> 20,2.05,–
LTALIKPKKR [Peptide 9017.0231],8.72,0.039,1.3,6.46,–
AFTDLTIVYR [Peptide 78.0052],0.817,0.21,0.81,> 20,–
NTKANILYK [Peptide 88.0358],0.693,0.1,–,2.12,–
SVCMGGMNR [Peptide 1556.60],0.078,–,0.092,0.157,–
HLFGYSFYK [Peptide 76.0190],0.033,–,0.027,0.0054,–
SQACALYWFR [Peptide 88.0192],–,0.085,0.042,4.66,–
AILGHIVSPR [Peptide 9017.0225],0.074,0.092,0.0046,0.014,–
SQRLNACQNK [Peptide 1589.34],> 20,> 20,5.96,2.7,–
KLTEDRWNK [Peptide 9017.0108],> 20,> 20,0.055,–,0.042
ILTAFNSSHK [Peptide 1589.03],> 20,6.39,–,0.012,–
NVCVSWKYK [Peptide 88.0383],2.46,0.628,0.265,–,0.927
VLCTYSPALNK [Peptide 1556.36],> 20,14.7,4.8,–,0.15
EVHIPLGDAR [Peptide 9017.0217],–,0.0095,9.92,9.39,–

Sequence,IC50 (A*3301) [µM],IC50 (A*6801) [µM],IC50 (A31 (A*3101)) [µM],IC50 (HLA-A3.2 (A*0301)) [µM],IC50 (HLA-A11 (A*1101)) [µM]
AFADLTVVYR [Peptide 78.0058],0.249,0.039,0.14,> 20,–
LTALIKPKK [Peptide 9017.0100],1.11,0.027,2.48,–,0.071
LVKHHMYVSK [Peptide 9017.0216],–,0.017,0.347,0.574,–
RQQFLKTVK [Peptide 1589.33],–,> 20,0.045,1.32,–
LQGLAQSRYK [Peptide 88.0201],> 20,> 20,4.01,1.1,–
RFLSKISEYR [Peptide 1571.13],0.02,0.017,0.014,1.8,–
ATNCTNKQR [Peptide 1589.20],13,–,0.051,1.83,–
VTVYYGVPVRR [Peptide 1525.07],0.795,0.032,0.059,–,0.271
EQMLIQPPK [Peptide 88.0378],0.831,0.732,> 20,–,0.079
SQISYWQLIR [Peptide 88.0220],> 20,0.934,–,2.61,–
KGLGISYGR [Peptide 1577.30],> 20,> 20,0.0014,–,0.415
STTETADPK [Peptide 88.0441],> 20,0.074,3.58,–,0.017
TTITVYAEPPR [Peptide 1556.07],2.55,0.02,0.577,> 20,–
EFTAFLVAFK [Peptide 88.0193],0.127,0.98,–,7.48,–
KLFLKGVPKK [Peptide 1587.40],> 20,> 20,1.04,0.016,–
SFFSRTWCK [Peptide 88.0363],0.004,0.066,0.012,–,0.016
AIRKAILGHR [Peptide 9017.0223],1.52,7.73,0.025,–,12.6
ESKKKVESK [Peptide 9017.0082],> 20,0.25,> 20,–,> 20
SVFQNLQVIK [Peptide 9012.0231],6.22,0.016,3.56,–,0.011
TFPNPFPFDK [Peptide 88.0162],1.83,1.11,2.26,–,0.221
KQLCDLLIR [Peptide 1513.14],6.9,> 20,0.024,–,1.68
GQWIQSRCEK [Peptide 88.0166],4.92,> 20,–,0.32,–
KISEYRHYQY [Peptide 1571.14],> 20,11.7,7.22,–,0.392
KMFCQLAR [Peptide 1556.53],–,0.249,0.035,0.022,–

Sequence,IC50 (A*3301) [µM],IC50 (A*6801) [µM],IC50 (A31 (A*3101)) [µM],IC50 (HLA-A3.2 (A*0301)) [µM],IC50 (HLA-A11 (A*1101)) [µM]
RVHSSHLKSKK [Peptide 1556.75],12,2.15,0.3,–,0.02
MTLESILRR [Peptide 9012.0215],0.094,0.015,0.243,–,0.014
TIVYIEYRK [Peptide 9017.0118],–,0.018,13.7,8.83,–
PVRPQVPLR [Peptide 66.0063],–,–,–,> 20,–
TTLEKLTNK [Peptide 78.0283],0.469,2.56,0.598,–,0.042
RAHSSHLR [Peptide 1556.71],–,1.72,0.04,1.91,–
KVCLRLLSK [Peptide 78.0302],> 20,> 20,0.525,–,0.23
ATCALYWYR [Peptide 88.0371],0.015,0.12,0.019,–,0.018
YLTAPTGCLK [Peptide 1589.15],> 20,2.56,> 20,–,0.573
MLIEPPKLR [Peptide 88.0366],0.15,0.012,3.16,–,2.88
TSNECTNNK [Peptide 1589.31],> 20,–,8.91,4.79,–
YSVYGTTLEK [Peptide 78.0054],> 20,0.036,> 20,–,0.1
ALQGLAQSR [Peptide 88.0398],> 20,11.3,0.311,–,2.76
NTMHYTNWK [Peptide 1589.16],0.402,0.011,4.92,–,0.011
IVVSAELPK [Peptide 1556.19],> 20,0.218,> 20,–,0.093
RQLFLNTVK [Peptide 1589.44],> 20,16.2,0.087,–,0.039
GTRQARKNR [Peptide 9017.0071],5.07,> 20,0.024,–,8.35
LTYDSEWQR [Peptide 1589.04],–,0.014,–,0.888,–
KQRFHNIRGR [Peptide 78.0083],4.44,–,0.178,2.04,–
GILRQRRAR [Peptide 9017.0114],3.19,1.48,0.177,–,0.672
WLSEPQKCFK [Peptide 88.0236],0.617,–,2.34,1.69,–
GQVNCKGIYY [Peptide 88.0209],> 20,> 20,2.76,–,0.168
